Drawing on publication PMC10293011, “An allosteric pan-TEAD inhibitor blocks oncogenic YAP/TAZ signaling and overcomes KRAS G12C inhibitor resistance” (Nature Cancer, 2023), this text covers IC50 for one compound.

The target in this assay is T1, TEAD3 (Homo sapiens, UniProt Q99594).
T1 construct: with YAP peptide (amino acids 50–100)
Description: TEAD3–YAP TR-FRET with purified protein (IC50); lipid displacement TR-FRET. The format is binding. A general note: Time-resolved FRET reads energy transfer from a long-lived donor to a nearby acceptor.

T1 sequence (Q99594 216-435): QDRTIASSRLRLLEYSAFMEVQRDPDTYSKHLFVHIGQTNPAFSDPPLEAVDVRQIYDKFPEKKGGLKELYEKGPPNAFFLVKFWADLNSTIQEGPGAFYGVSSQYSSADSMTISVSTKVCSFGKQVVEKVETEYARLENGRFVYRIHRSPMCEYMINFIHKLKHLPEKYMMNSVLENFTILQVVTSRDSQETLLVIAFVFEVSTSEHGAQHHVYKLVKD
T1 sequence (P46937 50-100 partner): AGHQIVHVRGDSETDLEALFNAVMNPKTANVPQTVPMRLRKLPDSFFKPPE

`CCOC(=O)c1cnn2c(=O)cc(-c3ccc(C(F)(F)F)cc3)[nH]c12` [compound 1] had an IC50 of 1400 nM.

One may read the IC50 as the midpoint of a concentration-inhibition curve. High values mean weaker potency in that assay, low ones greater potency in that assay.
